# Like-named read-outs stand apart in the source and are kept apart here.
# Legend:
# A. baumannii = assay: MIC by broth microdilution, A. baumannii (WT); assay type: cell-based, Acinetobacter baumannii; settings: for A. baumannii MIC, WT: Table 4, RPMI + FCS
# S. aureus = assay: MIC by broth microdilution, S. aureus; assay type: cell-based, Staphylococcus aureus; settings: for MIC S. aureus: cation adjusted Mueller Hinton broth, 35° C. 20 hours
# [1] = tested on: Staphylococcus epidermidis (strain ATCC 12228); assay: MIC by broth microdilution, S. epidermidis; assay type: cell-based; settings: strain ATCC 12228, cation adjusted Mueller Hinton broth
# [2] = tested on: S. pneumoniae (strain ATCC 49619); assay: MIC by broth microdilution, S. pneumoniae; assay type: cell-based, Streptococcus pneumoniae; settings: strain ATCC 49619, cation adjusted Mueller Hinton broth + 5% laked horse blood
# A. baumannii RpoB H535C = assay: microbe, parasite or virus in culture; assay type: cell-based, Acinetobacter baumannii; settings: Table 4, RPMI + FCS
# [3] = tested on: S. pyogenes (strain IHMA 1117021); assay: MIC by broth microdilution, S. pyogenes; assay type: cell-based, Streptococcus pyogenes; settings: strain IHMA 1117021, cation adjusted Mueller Hinton broth + 5% laked horse blood
# [4] = tested on: M. tuberculosis (H37Rv strain ATCC 27294); assay type: cell-based, Mycobacterium tuberculosis
# [5] = tested on: M. abscessus (strain ATCC 19977); assay: MIC by broth microdilution, M. abscessus; assay type: cell-based, Mycobacterium abscessus; settings: strain ATCC 19977, Middlebrook 7H9 broth + ADC
# A. baumannii RpoB H535L = assay: microbe, parasite or virus in culture; assay type: cell-based, Acinetobacter baumannii; settings: Table 4, RPMI + FCS
# [6] = tested on: H. influenzae (strain ATCC 49247); assay: MIC by broth microdilution, H. influenzae; assay type: cell-based, Hemophilus influenzae; settings: strain ATCC 49247, Hemophilus test medium broth
# [7] = tested on: Enterococcus faecium (strain NCTC 12204); assay: MIC by broth microdilution, E. faecium; assay type: cell-based; settings: strain NCTC 12204, cation adjusted Mueller Hinton broth
# [8] = tested on: Enterococcus faecalis (strain ATCC 51575); assay: MIC by broth microdilution, E. faecalis; assay type: cell-based; settings: strain ATCC 51575, cation adjusted Mueller Hinton broth
# [9] = tested on: M. smegmatis (strain ATCC 700084); assay: MIC, M. smegmatis (BacTiter-Glo); assay type: cell-based, Mycobacterium smegmatis; settings: strain ATCC 700084, Middlebrook 7H9 + ADC, 90% growth inhibition, 20 hours
# A. baumannii RpoB H535Q = assay: microbe, parasite or virus in culture; assay type: cell-based, Acinetobacter baumannii; settings: Table 4, RPMI + FCS
# [10] = RPMI medium supplemented with 10% FCS, 35° C. 20 hours
smiles,measurement,setting,value
COC1C=COC2(C)Oc3c(C)c(O)c4c(c3C2=O)C2=NC3(NC2=C(NC(=O)C(C)=CC=CC(C)C(O)C(C)C(O)C(C)C(OC(C)=O)C1C)C4=O)C1CCC3CN(C)C1 (mixture of isomers) [1 (A + B)],MIC A. baumannii,A. baumannii; [10],0.25 µg/mL
same,MIC S. aureus,S. aureus,0.016 µg/mL
COC1C=COC2(C)Oc3c(C)c(O)c4c(c3C2=O)C2=NC3(NC2=C(NC(=O)C(C)=CC=CC(C)C(O)C(C)C(O)C(C)C(OC(C)=O)C1C)C4=O)C1CCC3CN(C(C)(C)C)C1 (mixture of isomers) [2 (A + B)],MIC A. baumannii,A. baumannii; [10],2 µg/mL
same,MIC S. aureus,S. aureus,0.008 µg/mL
COC1C=COC2(C)Oc3c(C)c(O)c4c(c3C2=O)C2=NC3(NC2=C(NC(=O)C(C)=CC=CC(C)C(O)C(C)C(O)C(C)C(OC(C)=O)C1C)C4=O)C1CC3CN(C)C1 (mixture of isomers) [5 (A + B)],MIC A. baumannii,A. baumannii; [10],8 µg/mL
same,MIC S. aureus,S. aureus,0.125 µg/mL
COC1C=COC2(C)Oc3c(C)c(O)c4c(c3C2=O)C2=NC3(CCC5CCC(C3)N5C)NC2=C(NC(=O)C(C)=CC=CC(C)C(O)C(C)C(O)C(C)C(OC(C)=O)C1C)C4=O (mixture of isomers) [8 (A + B + C + D)],MIC A. baumannii,A. baumannii; [10],0.008 µg/mL
same,"A. baumannii MIC, WT",A. baumannii,0.008 µg/mL
same,MIC S. epidermidis,[1],< 0.002 µg/mL
same,MIC S. pneumoniae,[2],< 0.002 µg/mL
same,"A. baumannii MIC, RpoB H535C",A. baumannii RpoB H535C,0.125 µg/mL
same,MIC S. pyogenes,[3],0.016 µg/mL
same,MIC M. tuberculosis,[4],0.01 µg/mL
same,MIC M. abscessus,[5],32 µg/mL
same,"A. baumannii MIC, RpoB H535L",A. baumannii RpoB H535L,1 µg/mL
same,MIC S. aureus,S. aureus,0.03 µg/mL
same,MIC H. influenzae,[6],0.125 µg/mL
same,MIC E. faecium,[7],0.125 µg/mL
same,MIC E. faecalis,[8],2 µg/mL
same,MIC M. smegmatis,[9],1.19 µg/mL
same,"A. baumannii MIC, RpoB H535Q",A. baumannii RpoB H535Q,0.06 µg/mL
COC1C=COC2(C)Oc3c(C)c(O)c4c(c3C2=O)C2=NC3(CC5CCC(C3)N5C3CCCC3)NC2=C(NC(=O)C(C)=CC=CC(C)C(O)C(C)C(O)C(C)C(OC(C)=O)C1C)C4=O (mixture of isomers) [15 (A + B)],MIC A. baumannii,A. baumannii; [10],0.25 µg/mL
same,MIC S. aureus,S. aureus,0.03 µg/mL
COC1C=COC2(C)Oc3c(C)c(O)c4c(c3C2=O)C2=NC3(NC2=C(NC(=O)C(C)=CC=CC(C)C(O)C(C)C(O)C(C)C(OC(C)=O)C1C)C4=O)C1CCCC3CNC1 (mixture of isomers) [16 (A + B)],MIC A. baumannii,A. baumannii; [10],< 0.002 µg/mL
same,"A. baumannii MIC, WT",A. baumannii,≤0.002 µg/mL
same,MIC S. epidermidis,[1],< 0.002 µg/mL
same,MIC S. pneumoniae,[2],< 0.002 µg/mL
same,"A. baumannii MIC, RpoB H535C",A. baumannii RpoB H535C,0.016 µg/mL
same,MIC S. pyogenes,[3],< 0.002 µg/mL
same,MIC M. abscessus,[5],4 µg/mL
same,"A. baumannii MIC, RpoB H535L",A. baumannii RpoB H535L,1 µg/mL
same,MIC S. aureus,S. aureus,0.004 µg/mL
same,MIC H. influenzae,[6],0.06 µg/mL
same,MIC E. faecium,[7],0.125 µg/mL
same,MIC E. faecalis,[8],0.5 µg/mL
same,MIC M. smegmatis,[9],0.33 µg/mL
same,"A. baumannii MIC, RpoB H535Q",A. baumannii RpoB H535Q,0.008 µg/mL
"CO[C@H]1/C=C/O[C@@]2(C)Oc3c(C)c(O)c4c(c3C2=O)C2=NC3(CCCNCC3)NC2=C(NC(=O)/C(C)=C\C=C\[C@H](C)[C@H](O)[C@@H](C)[C@@H](O)[C@@H](C)[C@H](OC(C)=O)[C@@H]1C)C4=O (single isomer, unassigned) [Compound 6A]",MIC A. baumannii,A. baumannii; [10],0.125 µg/mL
same,MIC S. aureus,S. aureus,0.016 µg/mL
"CO[C@H]1/C=C/O[C@@]2(C)Oc3c(C)c(O)c4c(c3C2=O)C2=NC3(CCCNCC3)NC2=C(NC(=O)/C(C)=C\C=C\[C@H](C)[C@H](O)[C@@H](C)[C@@H](O)[C@@H](C)[C@H](OC(C)=O)[C@@H]1C)C4=O (single isomer, unassigned) [Compound 6B]",MIC A. baumannii,A. baumannii; [10],125 µg/mL
same,MIC S. aureus,S. aureus,16 µg/mL
"CO[C@H]1/C=C/O[C@@]2(C)Oc3c(C)c(O)c4c(c3C2=O)C2=NC3(CCCN(C)CC3)NC2=C(NC(=O)/C(C)=C\C=C\[C@H](C)[C@H](O)[C@@H](C)[C@@H](O)[C@@H](C)[C@H](OC(C)=O)[C@@H]1C)C4=O (single isomer, unassigned) [Compound 7A]",MIC A. baumannii,A. baumannii; [10],0.004 µg/mL
same,"A. baumannii MIC, WT",A. baumannii,0.004 µg/mL
same,MIC S. epidermidis,[1],< 0.002 µg/mL
same,MIC S. pneumoniae,[2],< 0.002 µg/mL
same,"A. baumannii MIC, RpoB H535C",A. baumannii RpoB H535C,0.03 µg/mL
same,MIC S. pyogenes,[3],< 0.002 µg/mL
same,MIC M. tuberculosis,[4],0.01 µg/mL
same,MIC M. abscessus,[5],16 µg/mL
same,"A. baumannii MIC, RpoB H535L",A. baumannii RpoB H535L,1 µg/mL
same,MIC S. aureus,S. aureus,0.008 µg/mL
same,MIC H. influenzae,[6],0.06 µg/mL
same,MIC E. faecium,[7],0.06 µg/mL
same,MIC E. faecalis,[8],0.5 µg/mL
same,MIC M. smegmatis,[9],0.54 µg/mL
same,"A. baumannii MIC, RpoB H535Q",A. baumannii RpoB H535Q,0.016 µg/mL
"CO[C@H]1/C=C/O[C@@]2(C)Oc3c(C)c(O)c4c(c3C2=O)C2=NC3(CCCN(C)CC3)NC2=C(NC(=O)/C(C)=C\C=C\[C@H](C)[C@H](O)[C@@H](C)[C@@H](O)[C@@H](C)[C@H](OC(C)=O)[C@@H]1C)C4=O (single isomer, unassigned) [Compound 7B]",MIC A. baumannii,A. baumannii; [10],0.125 µg/mL
same,MIC S. aureus,S. aureus,0.008 µg/mL
"CO[C@H]1/C=C/O[C@@]2(C)Oc3c(C)c(O)c4c(c3C2=O)C2=NC3(CC5CCC(C3)N5)NC2=C(NC(=O)/C(C)=C\C=C\[C@H](C)[C@H](O)[C@@H](C)[C@@H](O)[C@@H](C)[C@H](OC(C)=O)[C@@H]1C)C4=O (single isomer, unassigned) [Compound 12A]",MIC A. baumannii,A. baumannii; [10],0.06 µg/mL
same,MIC S. aureus,S. aureus,0.06 µg/mL
"CO[C@H]1/C=C/O[C@@]2(C)Oc3c(C)c(O)c4c(c3C2=O)C2=NC3(CC5CCC(C3)N5C)NC2=C(NC(=O)/C(C)=C\C=C\[C@H](C)[C@H](O)[C@@H](C)[C@@H](O)[C@@H](C)[C@H](OC(C)=O)[C@@H]1C)C4=O (single isomer, unassigned) [Compound 13A]",MIC A. baumannii,A. baumannii; [10],0.03 µg/mL
same,MIC,"S. aureus; Staphylococcus aureus, 20 h, read-out: MIC S. aureus, cation adjusted Mueller Hinton broth, 35° C. 20 hours",0.03 µg/mL
"CO[C@H]1/C=C/O[C@@]2(C)Oc3c(C)c(O)c4c(c3C2=O)C2=NC3(CC5CCC(C3)N5C(C)C)NC2=C(NC(=O)/C(C)=C\C=C\[C@H](C)[C@H](O)[C@@H](C)[C@@H](O)[C@@H](C)[C@H](OC(C)=O)[C@@H]1C)C4=O (single isomer, unassigned) [Compound 14A]",MIC A. baumannii,A. baumannii; [10],0.25 µg/mL
same,MIC S. aureus,S. aureus,0.016 µg/mL
"CO[C@H]1/C=C/O[C@@]2(C)Oc3c(C)c(O)c4c(c3C2=O)C2=NC3(CC5CCC(C3)N5C(C)C)NC2=C(NC(=O)/C(C)=C\C=C\[C@H](C)[C@H](O)[C@@H](C)[C@@H](O)[C@@H](C)[C@H](OC(C)=O)[C@@H]1C)C4=O (single isomer, unassigned) [Compound 14B]",MIC A. baumannii,A. baumannii; [10],0.016 µg/mL
same,MIC S. aureus,S. aureus,0.008 µg/mL
"CCCN1C2CCC1CC1(C2)N=C2C(=C3NC(=O)/C(C)=C\C=C\[C@H](C)[C@H](O)[C@@H](C)[C@@H](O)[C@@H](C)[C@H](OC(C)=O)[C@H](C)[C@@H](OC)/C=C/O[C@@]4(C)Oc5c(C)c(O)c(c2c5C4=O)C3=O)N1 (single isomer, unassigned) [Compound 20A]",MIC A. baumannii,A. baumannii; [10],0.25 µg/mL
same,MIC S. aureus,S. aureus,0.008 µg/mL
CO[C@H]1/C=C/O[C@@]2(C)Oc3c(C)c(O)c4c(c3C2=O)C2=NC3(NC2=C(NC(=O)/C(C)=C\C=C\[C@H](C)[C@H](O)[C@@H](C)[C@@H](O)[C@@H](C)[C@H](OC(C)=O)[C@@H]1C)C4=O)C1CC2CC3CN(C2)C1 (stereo partly shown) [Compound 3A],MIC A. baumannii,A. baumannii,0.25 µg/mL
same,MIC S. aureus,S. aureus,0.008 µg/mL
CCCN1CC2CN(CCC)CC(C1)C21N=C2C(=C3NC(=O)/C(C)=C\C=C\[C@H](C)[C@H](O)[C@@H](C)[C@@H](O)[C@@H](C)[C@H](OC(C)=O)[C@H](C)[C@@H](OC)/C=C/O[C@@]4(C)Oc5c(C)c(O)c(c2c5C4=O)C3=O)N1 (stereo partly shown) [Compound 4],MIC A. baumannii,A. baumannii; [10],0.03 µg/mL
same,MIC S. aureus,S. aureus,0.016 µg/mL
CO[C@H]1/C=C/O[C@@]2(C)Oc3c(C)c(O)c4c(c3C2=O)C2=NC3(NC2=C(NC(=O)/C(C)=C\C=C\[C@H](C)[C@H](O)[C@@H](C)[C@@H](O)[C@@H](C)[C@H](OC(C)=O)[C@@H]1C)C4=O)C1CNCC3CNC1 (stereo partly shown) [Compound 17],MIC A. baumannii,A. baumannii; [10],0.5 µg/mL
same,MIC S. aureus,S. aureus,0.008 µg/mL
CO[C@H]1/C=C/O[C@@]2(C)Oc3c(C)c(O)c4c(c3C2=O)C2=NC3(NC2=C(NC(=O)/C(C)=C\C=C\[C@H](C)[C@H](O)[C@@H](C)[C@@H](O)[C@@H](C)[C@H](OC(C)=O)[C@@H]1C)C4=O)C1CN2CC3CN(C1)C2 (stereo partly shown) [Compound 19],MIC A. baumannii,A. baumannii; [10],1 µg/mL
same,MIC S. aureus,S. aureus,0.004 µg/mL
